The text below walks through data of US20110195116A1, “RATE MODULATED DELIVERY OF DRUGS FROM A COMPOSITE DELIVERY SYSTEM” (ADCOCK INGRAM HEALTHCARE PTY LIMITED, priority 2008, published 2011).

The conditions of data set [1]: in vivo; cited from earlier work.
The nature of data set [2]: dissolution study, USP paddle, phosphate buffer pH 6.8. Format: physicochemical. As to the method: Initial dissolution characteristics of the combined APIs paracetamol, tramadol hydrochloride and diclofenac potassium; individual and combined cellulose and ethylene oxide-based polymers were determined by producing experimental batches of tablets. These were produced on a Manesty Single Punch Type F3 machine by direct compression and wet granulation techniques into monolithic matrix and multi-layered systems, as shown in FIG. 1. In situ crosslinking of various alginate, pectin and eudragit polymers with salts such as zinc gluconate was also investigated for an influence on the release characteristics of the solid dosage system.
(§1) Dissolution studies were conducted using a USP rotating paddle method (Hanson Virtual Instruments SR8 Plus Dissolution Test Stations) at 50 rpm in phosphate buffer pH 6.8 (900 mL, 37° C.±0.5° C.) for each formulation employing an autosampler (Hanson Research Auto Plus Maximiser and AutoPlus™ MultiFill™). Samples of 1.6 mL were withdrawn over a period of 12 to 20 hours and analysed via HPLC. Release profiles in simulated gastric fluid pH 1.2 without pepsin over a period of four hours were determined to identify any site-specific release induced by the polymers. The dissolution studies were performed under the conditions described in Table 1.

The nature of data set [3]: dissolution study, USP paddle, simulated gastric fluid pH 1.2 without pepsin. Type of data set: physicochemical. Conditions: cellulose, polyethylene oxide and alginate polymer formulations. As to the method: as §1
The alginate and zinc gluconate addition was then included in a formulation where the HEC and HPC had been further reduced to 45.31 mg and 90.6 mg respectively (FIG. 16).
In order to establish the potential site-specific release potential of the polymeric dosage form, formulations consisting of cellulose, polyethylene oxide and alginate polymers were subjected to dissolution studies in simulated gastric fluid pH 1.2 without pepsin.

For data set [4] the following is noted: cited from earlier work.
Setting [5] is: dosage form with pectin, alginate and eudragit polymers crosslinked with metallic salts.

Where a name gives a salt, the structure may show the parent alone. Read-outs that look alike come from different tables or passages of the source.

As for `COc1cccc(C2(O)CCCCC2CN(C)C)c1` (stereo not drawn) [Tramadol], the “elimination half-life (t1/2)” value in data set [1] is 6 h.

As for `O=C(O)Cc1ccccc1Nc1c(Cl)cccc1Cl` [diclofenac potassium], the release kinetics result was “zero-order” in data set [2] (cellulose and polyethylene oxide-based formulation compressed as layered dosage form); “first-order” in data set [2] (cellulose and polyethylene oxide-based formulation compressed as monolithic matrix); “zero-order” in data set [2] (setting [5]). Besides, the “release in simulated gastric fluid” value in data set [3] is “not released”.

`CC(=O)Nc1ccc(O)cc1` [Paracetamol]: the release kinetics result in data set [2] (setting [5]) is given as “first-order”. Further, the water solubility in data set [4] (at 20° C.) was 1.4%.

With `COc1cccc(C2(O)CCCCC2CN(C)C)c1` (stereo not drawn) [tramadol hydrochloride], the release kinetics result in data set [2] (setting [5]) is on record as “first-order”.

In the case of `O=C(O)Cc1ccccc1Nc1c(Cl)cccc1Cl` [Diclofenac], the water solubility in data set [4] (at pH 6.8) is given as 0.187%.
